Among the data in PubChem BioAssay (NCI) are TGI and GI50 values, retold here.

Some test systems named below: SNB-78 CNS; M19-MEL melanoma; RXF-631 renal; MCF7 breast; MDA-MB-435; HS 578T breast; MDA-MB-231 breast; MDA-N; P388/ADR leukemia; SN12K1 renal; P388 leukemia; DU-145 prostate.
Experiment in all cases: NCI tumour cell line growth inhibition, 48 h

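Assay format: 96-well plates, 48-hour exposure. The concentration for 50% growth inhibition is given as GI50. At the TGI there is no net growth.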

With `O=c1cccccc1NCCCCCCCCCNc1cccccc1=O`, the figures for the TGI in the assay with SNB-78 CNS and with M19-MEL melanoma were 82.4 µM and 51 µM, respectively.

Regarding `O=C1C(=O)N(C2C3CC4CC(C3)CC2C4)C(=O)C(=O)C1c1nc2ccccc2o1` (centres undefined), the TGI with RXF-631 renal, in the assay with SNB-78 CNS and in the assay with M19-MEL melanoma was over 100 µM in each case.

With `CCOC(=O)N1C2C=C(C)C(C3C(C)C(=O)N31)N(C(=O)c1ccccc1)O2` (centres undefined), the TGI in the assay on RXF-631 renal, in the assay on SNB-78 CNS and in the assay on M19-MEL melanoma was over 100 µM each time.

For the molecule `N#Cc1ccccc1NC(=O)c1ccccc1`, the TGI with SNB-78 CNS and with M19-MEL melanoma was over 100 µM each time.

With `COc1ccc(COCC(Cn2ccnc2)OCc2ccc(C(=O)O)cc2)cc1` (centres undefined), the TGI with RXF-631 renal, in the assay with SNB-78 CNS and in the assay with M19-MEL melanoma was over 100 µM in each case.

In the case of `CCOc1ccc(NC(=O)CC2SC(N)=NC2=O)cc1` (centres undefined), the TGI in the assay with SNB-78 CNS and in the assay on M19-MEL melanoma was over 100 µM in each case.

Take `FC(F)(F)c1ccc2nc(Nc3ccc(Cl)c(Cl)c3)c(-c3ccccc3)nc2c1`: the TGI in the assay on SNB-78 CNS and in the assay with M19-MEL melanoma was over 100 µM in each case.

In the case of `Clc1ccc(CN2COc3c(cc(Cl)c4cccnc34)C2)cc1`, the TGI in the assay on RXF-631 renal amounted to 23.1 µM; with SNB-78 CNS it was 17.9 µM; in the assay with M19-MEL melanoma, 6.06 µM.

In the case of `O=c1[nH]cc(OCC(F)(F)F)c(=O)[nH]1`, the TGI in the assay on RXF-631 renal, in the assay on SNB-78 CNS and in the assay on M19-MEL melanoma was over 100 µM each time.

`COc1cc(Oc2c(O)c(C)c(OC)c(C(C)=O)c2O)c(C(C)=O)c(O)c1C`: the TGI with RXF-631 renal, with SNB-78 CNS and in the assay on M19-MEL melanoma was over 100 µM in each case.

On to `COc1ccc2cc3n(c2c1)CCc1cc(OC)c(OC)cc1-3`, for which the TGI in the assay with RXF-631 renal, with SNB-78 CNS and with M19-MEL melanoma was over 100 µM in each case.

In the case of `CC1CC2(CC[C@@H]1O)OCCO2` (some centres undefined), the TGI in the assay on RXF-631 renal, with SNB-78 CNS and with M19-MEL melanoma was over 100 µM each time.

Regarding `O=C(O)c1c[nH]cc1C(=O)O`, the TGI with SNB-78 CNS and in the assay with M19-MEL melanoma was over 100 µM throughout.

As for `O=C1c2ccccc2C(=O)C1C(c1ccc([N+](=O)[O-])cc1)C1C(=O)c2ccccc2C1=O`, the TGI with RXF-631 renal was 29.7 µM; in the assay on SNB-78 CNS, over 100 µM.

Molecule `CC(=O)NC(CCCN(Cc1ccccc1)C(=O)N(CCCl)N=O)C(=O)NCc1ccccc1` (centres undefined) had a TGI in the assay on SNB-78 CNS of over 100 µM.

As for `O=C1CC2C(=O)N(Cc3ccccc3)C1C(S(=O)(=O)c1ccccc1)C2S(=O)(=O)c1ccccc1` (centres undefined), the TGI in the assay on RXF-631 renal was 28.1 µM; with SNB-78 CNS, 36.1 µM; in the assay on M19-MEL melanoma, 4.09 µM.

For `O=C(Nc1cc(Cl)c(Cl)cc1Cl)C(=O)C(C(=O)c1ccc(Cl)c(Cl)c1)C1OC(=O)c2ccccc21` (centres undefined), the TGI is over 100 µM with SNB-78 CNS and 37.9 µM in the assay on M19-MEL melanoma.

As for `COC(=O)C(Cc1nc2ccc(Cl)cc2[nH]c1=O)C(=O)C(=O)Nc1ccccc1[N+](=O)[O-]` (centres undefined), the TGI in the assay with RXF-631 renal, in the assay on SNB-78 CNS and with M19-MEL melanoma was over 100 µM in each case.

`CN(C)CCNC(=O)c1ccc(Cl)c2c(Nc3ccc(S(N)(=O)=O)cc3)c3ccccc3nc12`: the TGI came out at 11.6 µM in the assay on RXF-631 renal and 4.52 µM in the assay on M19-MEL melanoma.

Regarding `CC(=O)C1=C([O-])C(C)OC1=O.CC(=O)C1=C([O-])C(C)OC1=O.[NH-]C1CCCC[C@H]1[NH-].[Pt+4]` (centres undefined), in the assay on M19-MEL melanoma, the GI50 is 56 µM and the TGI is over 100 µM.

With `COC(=O)[C@]1(C)CCC[C@@]2(C)C1CCC1=C[C@@]3(C(C)C)CC[C@]12OO3` (some centres undefined), the TGI is 63.8 µM with RXF-631 renal, over 100 µM in the assay on SNB-78 CNS and 65.7 µM in the assay with M19-MEL melanoma.

Take `CC1=NN(C(=O)c2ccc(Cl)cc2)C(=O)/C1=C/c1cccc([N+](=O)[O-])c1`: the TGI in the assay with SNB-78 CNS and in the assay with M19-MEL melanoma was over 100 µM throughout.

For `CN(C)c1ccc(N=Nc2c([O-])ccc3ccccc23)cc1.[C-]#[O+].[C-]#[O+].[Ir]`, the GI50 in the assay with MCF7 breast was 15.8 µM; in the assay on MDA-MB-435, 18.8 µM; with M19-MEL melanoma, 20.3 µM; in the assay on HS 578T breast, 19.3 µM; in the assay on MDA-MB-231 breast, 18.8 µM. Moreover, the TGI amounted to 31.8 µM in the assay with MCF7 breast; 46.1 µM in the assay on MDA-MB-435; 50.2 µM in the assay on M19-MEL melanoma; 70.9 µM in the assay with HS 578T breast; 36.2 µM with MDA-MB-231 breast.

Regarding `COC(=O)C(=O)C(C(=O)C=C(C)C)C(=O)C(=O)Nc1cccc(C(C)=O)c1` (centres undefined), the TGI in the assay with RXF-631 renal, with SNB-78 CNS and in the assay on M19-MEL melanoma was over 100 µM each time.

In the case of `CCO[C@@H]1C2C=CC(C2)[C@H]1[N+](=O)[O-]` (some centres undefined), the TGI in the assay on SNB-78 CNS and with M19-MEL melanoma was over 100 µM throughout.

For the molecule `CCC1CN2CCc3cc(OC)c(OC)cc3C2CC1CC1c2cc(OC)c(OC)cc2CCN1C(=O)CNC(=O)OC(C)(C)C` (centres undefined), the figures for the TGI with RXF-631 renal, in the assay with SNB-78 CNS and in the assay on M19-MEL melanoma were over 100 µM, 51 µM and 61.2 µM, respectively.

For `CC(C)=CC(=O)CC(=O)C(=O)Nc1ccc(Cl)c(Cl)c1`, the TGI in the assay with SNB-78 CNS and in the assay on M19-MEL melanoma was over 100 µM throughout.

With `CCSc1nc(COC(=O)NC)c(COC(=O)NC)n1C`, the TGI in the assay with MDA-N is over 100 µM; in the assay on RXF-631 renal, over 100 µM; in the assay with P388/ADR leukemia, over 100 µM; in the assay on SN12K1 renal, over 100 µM; in the assay on SNB-78 CNS, over 85.9 µM; with MCF7 breast it was over 100 µM. For the same molecule, the TGI in the assay on MDA-MB-435 was over 100 µM; in the assay on P388 leukemia, over 100 µM; in the assay with M19-MEL melanoma, over 79.9 µM; in the assay with HS 578T breast, over 100 µM; with DU-145 prostate, over 23.2 µM; in the assay with MDA-MB-231 breast, over 100 µM.

In the case of `O=C(O)CCC1CCc2cccc3occ1c23` (centres undefined), the TGI with RXF-631 renal, in the assay with SNB-78 CNS and with M19-MEL melanoma was over 100 µM each time.

For `CC(=O)Oc1ccccc1C(=O)C1c2cccc(O)c2C(=O)c2c(O)cccc21`, the TGI with RXF-631 renal is 11.1 µM; with SNB-78 CNS it was over 24.8 µM; with M19-MEL melanoma it was 2.94 µM.

On to `Cc1c2ccncc2c(C)c2c1[nH]c1ccc(OC(C)(C)C)cc12`, for which the TGI with RXF-631 renal was 6.58 µM; with SNB-78 CNS, 6.53 µM; in the assay with M19-MEL melanoma it was 5.54 µM.

Consider `COC1CC(n2cnc3c(N)ncnc32)OC1CO` (centres undefined), for which the TGI with M19-MEL melanoma was over 100 µM.

As for `CN(C)C(=O)C1CCC(=C2C(=O)OC(C)(C)OC2=O)N1C` (centres undefined), the TGI in the assay with SNB-78 CNS and in the assay with M19-MEL melanoma was over 100 µM throughout.

Turning to `C/C(=N\NC(N)=O)C(CN(C)C)C(c1ccccc1)c1c(O)c2ccccc2oc1=O` (centres undefined), the TGI in the assay on MDA-N, in the assay on MCF7 breast, in the assay on MDA-MB-435, with HS 578T breast, in the assay on DU-145 prostate and with MDA-MB-231 breast was over 100 µM throughout.

Take `CCOC(=O)/C(C#N)=C1\N[C@H](C(=O)OCC)CO1`: the TGI in the assay on RXF-631 renal, in the assay with SNB-78 CNS and in the assay on M19-MEL melanoma was over 100 µM throughout.

Take `N/N=C(\Cc1ccccc1)NN=C(N)N`: the TGI with RXF-631 renal, in the assay with SNB-78 CNS and in the assay with M19-MEL melanoma was over 100 µM each time.

As to `Cc1cccc(C(C)(C)C)c1NC(=O)C(=O)C(c1cnc2ccccc2n1)[N+](=O)[O-]` (centres undefined), the TGI in the assay with SNB-78 CNS and in the assay with M19-MEL melanoma was over 100 µM throughout.

`CC(C)[C@@H](COC(C)(C)C)N=CN1CCc2c([nH]c3ccccc23)C1`: the TGI with SNB-78 CNS was over 100 µM.

As to `O=C(Cc1ccccc1)N/N=C(\C1=Nc2ccc([N+](=O)[O-])cc2NC1O)C(O)c1ccc([N+](=O)[O-])cc1` (centres undefined), the TGI with RXF-631 renal, in the assay with SNB-78 CNS and with M19-MEL melanoma was over 100 µM throughout.

Turning to `C/C=C(/CCCCNCCCC)[Si](C)(C)C`, the TGI came to 31.3 µM in the assay with RXF-631 renal, 29.7 µM with SNB-78 CNS and 33 µM in the assay on M19-MEL melanoma.
